Test results reported in US11298367B2, “Prodrugs of substituted triazole derivatives and uses thereof” (Bayer Aktiengesellschaft, priority 2017, dated 2022).
Like-named read-outs stand apart in the source and are kept apart here.

Legend:
human V1a receptor = target: T1, human V1a receptor (Homo sapiens, UniProt P37288); assay: Cellular in vitro assay for verification of prodrug conversion into drug (with/without alkaline phosphatase); type: cell-based; conditions: human V1a CHO cells
T1 construct: expressed in transfected cells; host or cells: CHO K1 (Chinese hamster ovary), also stably transfected with a modified aequorin
Method: B-4. Cellular In Vitro Assay for Verification of Prodrug Conversion into Drug
To verify the conversion of prodrugs into the respective drugs, the prodrugs are incubated with and without alkaline phosphatase. Cleavage of the phosphate moiety by alkaline phosphatase converts the prodrug into the underlying respective drug [Coleman J. E., Annu. Rev. Biophys. Biomol. Struct. 1992, 21, 441-483]. As prodrug and underlying respective drug show different IC50 values, the value of the prodrug after alkaline phosphatase treatment resembles the IC50 of the respective drug. The determination of IC50 values of compounds of the invention at the human V1a receptor is carried out using a recombinant cell line. The cell line originally derives from a hamster's ovary epithelial cell (Chinese Hamster Ovary, CHO K1, ATCC: American Type Culture Collection, Manassas, Va. 20108, USA). The test cell line constitutively expresses the human V1a receptor. Cells are also stably transfected with a modified form of the calcium-sensitive photoprotein aequorin which, after reconstitution with the cofactor coelenterazine, emits light upon increase in free calcium concentration [Rizzuto R, Simpson A W, Brini M, Pozzan T, Nature 358, 325-327 (1992); Illarionov B A, Bondar V S, Illarionova V A, Vysotski E S, Gene 153 (2), 273-274 (1995)]. The resulting vasopressin receptor cell reacts to stimulation of the recombinantly expressed V1a receptor by intracellular release of calcium ions, which can be quantified by the resulting luminescence of photoprotein. The bioluminescence of the cell line is detected using a suitable luminometer [Milligan G, Marshall F, Rees S, Trends in Pharmacological Sciences 17, 235-237 (1996)].
On the day before the assay, the cells are seeded in culture medium (DMEM/F12, 2% FCS, 2 mM glutamine, 10 mM HEPES, 5 μg/ml coelenterazine) in 384-well microtiter plates and kept in a cell incubator (96% humidity, 5% v/v CO2, 37C). On the day of the assay, 100 μl of test compounds at a concentration of 100 μM are incubated for 15 minutes with 500 units alkaline phosphatase at 37° C. in tyrode buffer (20 mM HEPES, 130 mM NaCl, 5 mM KCl, 5 mM NaHCO3, 2 mM MgCl2, pH 7,4). After incubation compounds are immediately diluted and placed for 10 minutes at 37° C. on the before seeded V1a cells. For detection of antagonistic activity of the compounds [Arg^8]-vasopressin at EC50 concentration is added and the resulting light signal is measured immediately in a luminometer.

[1] = system: vasopressin (AVP) mediated changes of systemic and renal hemodynamics; assay: Acute effects on vasopressin-mediated changes of systemic hemodynamics, renal blood flow and oxygenation in anesthetized rats; type: in vivo, rat; conditions: AVP 50 ng/kg/min + compound 30 μg/kg bolus, mean ± SD, n = 8
Method: B-11. Acute Effects on Vasopressin-Mediated Changes of Systemic Hemodynamics, Renal Blood Flow and Oxygenation in Anesthetized Rats
Experiments are performed on male Sprague Dawley rats (Charles River, Deutschland; 350-450 g body weight). In preparation for surgical procedures rats are anesthetized with isoflurane and placed on a heated table to maintain core body temperature at 37° C., assessed using a rectal thermometer inserted. Inhalation anesthesia with isoflurane is applied using a calibrated vaporizer to induce and maintain anesthesia with 5 vol. % and 2 vol. % isoflurane, respectively. A PE50 cannula is placed in the right arteria femoralis for monitoring mean arterial pressure (MAP). Another PE50 catheter is inserted into the vena femoralis for intravenous infusion. The left kidney is exposed by a flank incision and separated from the perirenal attachments. The kidney capsule remains intact. During surgery and the subsequent equilibration and control periods, the rats receive an intravenous infusion of saline (0.9% NaCl) at rate 100 μL/min. Renal measurements of renal blood flow (RBF) are recorded using a laser Doppler blood flow probe (Oxford Optronix, UK) that is attached and stabilized to the surface of the kidney. The probe is inserted into the renal cortex to a depth of 2 mm and another into the renal medulla at 4 mm. The renal blood flow, oxygen and temperature are measured by combined sensor probe (Oxford Optronix, UK). MAP, heart rate (HR), RBF, temperature and oxygen are continuously recorded. After surgery and equilibration, baseline measurements are determined for 20 minutes. The rats are then intravenously infused with vasopressin atrate 50 ng/kg/min in 100 μL/kg for 20 minutes. In the third period, the effect of combined infusion of vasopressin and adual vasopressin receptor antagonist (Example 82 of WO 2016/071212) or a selective V1a antagonist (Example 1) or vehicle that is applied as a bolus in different concentration is determined.

pH stability = type: physicochemical
Method: 0.15 mg of the test compound is dissolved in 0.1 ml dimethylsulfoxide and 0.4 ml acetonitrile. For complete dissolution the HPLC vial with the sample solution is shaken and treated with ultrasonic irradiation. Then 1.0 ml of the respective buffer solution is added and the sample is vortexed. The sample solution is analyzed by HPLC to determine the amount of the test compound at a particular time over a period of 24 h at 37° C. The peak areas in percentage are used for quantification.
pH 4.0: Fluka buffer, Order No. 33643 (11.76 g citric acid, 2.57 g sodium chloride and 2.72 g sodium hydroxide).
pH 7.4: 90 g of sodium chloride, 13.61 g of potassium dihydrogen phosphate and 83.35 g of 1 M sodium hydroxide solution are made up to 1 litre with Millipore water and then diluted 1:10. Adjust with phosphoric acid to pH=7.4.
pH 10: Fluka buffer, Order No. 33649 (4.77 g Borax, 0.73 g sodium hydroxide).
15 μl portions of the sample solution are analysed by HPLC at different times (0 h, 1 h, 2 h, 4 h and 24 h) at 37° C. The peak areas in percentage are used for quantification.
The ratios of the peak area (F) at different times in relation to the peak area at the starting point are shown in Table 8A for representative examples: […]

[2] = pre-incubation 15 min with 500 units alkaline phosphatase at 37° C., read-out: IC50 with AP
[3] = without alkaline phosphatase, read-out: IC50 without AP

T1 sequence (P37288 whole entry): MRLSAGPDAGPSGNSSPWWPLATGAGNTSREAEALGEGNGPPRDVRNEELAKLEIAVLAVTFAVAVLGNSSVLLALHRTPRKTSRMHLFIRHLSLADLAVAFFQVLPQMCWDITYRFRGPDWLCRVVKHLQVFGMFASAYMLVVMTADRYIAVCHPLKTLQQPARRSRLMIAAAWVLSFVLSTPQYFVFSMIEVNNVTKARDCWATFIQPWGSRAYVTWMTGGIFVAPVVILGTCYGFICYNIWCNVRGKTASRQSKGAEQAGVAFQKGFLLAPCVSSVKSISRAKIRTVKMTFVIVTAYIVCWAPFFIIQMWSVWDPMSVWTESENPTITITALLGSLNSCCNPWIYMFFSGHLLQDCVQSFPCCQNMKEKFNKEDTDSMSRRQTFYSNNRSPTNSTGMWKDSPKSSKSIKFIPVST

| Compound | IC50 (human V1a receptor; [2]) [nM] | IC50 (human V1a receptor; [3]) [nM] | HR (heart rate) [1] [BPM] | MAP (mean arterial blood pressure) [1] [mmHg] | RBF (renal blood flow) [1] [U] | pO2 (partial pressure of renal oxygen) [1] [mmHg] | % Test Compound after 4 h [F(t = 4 h) × 100/F(t = 0 h)] (pH stability; buffer pH 4, 37° C.) [%] | % Test Compound after 24 h [F(t = 24 h) × 100/F(t = 0 h)] (pH stability; buffer pH 4, 37° C.) [%] | % Test Compound after 4 h [F(t = 4 h) × 100/F(t = 0 h)] (pH stability; buffer pH 7.4, 37° C.) [%] | % Test Compound after 24 h [F(t = 24 h) × 100/F(t = 0 h)] (pH stability; buffer pH 7.4, 37° C.) [%] | % Test Compound after 4 h [F(t = 4 h) × 100/F(t = 0 h)] (pH stability; buffer pH 10, 37° C.) [%] | % Test Compound after 24 h [F(t = 24 h) × 100/F(t = 0 h)] (pH stability; buffer pH 10, 37° C.) [%] |
| --- | --- | --- | --- | --- | --- | --- | --- | --- | --- | --- | --- | --- |
| NC(=O)c1nc(Cn2nc(-c3ccc(Cl)cc3)n(C[C@H](OP(=O)(O)O)C(F)(F)F)c2=O)nn1-c1ncccc1C(F)(F)F [Example 1, (2S)-3-[1-({5-Carbamoyl-1-[3-(trifluoromethyl)pyridin-2-yl]-1H-1,2,4-triazol-3-yl}methyl)-3-(4-chlorophenyl)-5-oxo-1,5-dihydro-4H-1,2,4-triazol-4-yl]-1,1,1-trifluoropropan-2-yl Dihydrogen Phosphate] | 1.45 | 13.1 | 276.20 ± 4.46 | 103.50 ± 4.97 | 877.00 ± 43.01 | 14.32 ± 1.13 | 100 | 100 | 99 | 99 | 99 | 98 |
| NC(=O)c1nc(Cn2nc(-c3ccc(Cl)cc3)n(C[C@H](O)C(F)(F)F)c2=O)nn1-c1ncccc1C(F)(F)F [Example 4A, 3-({3-(4-Chlorophenyl)-5-oxo-4-[(2S)-3,3,3-trifluoro-2-hydroxypropyl]-4,5-dihydro-1H-1,2,4-triazol-1-yl}methyl)-1-[3-(trifluoromethyl)pyridin-2-yl]-1H-1,2,4-triazole-5-carboxamide] | 1.35 | 1.25 | 270.50 ± 2.89 | 114.80 ± 7.42 | 878.10 ± 96.92 | 15.86 ± 4.01 | – | – | – | – | – | – |
| NC(=O)c1nc(Cn2nc(-c3ccc(Cl)cc3)n(C[C@H](OP(=O)(O)O)C(F)(F)F)c2=O)nn1-c1ccccc1C(F)(F)F [Example 10, (2S)-3-[1-({5-Carbamoyl-1-[2-(trifluoromethyl)phenyl]-1H-1,2,4-triazol-3-yl}methyl)-3-(4-chlorophenyl)-5-oxo-1,5-dihydro-4H-1,2,4-triazol-4-yl]-1,1,1-trifluoropropan-2-yl Dihydrogen Phosphate] | 1.3 | 11 | – | – | – | – | 100 | 100 | 100 | 100 | – | – |
| NC(=O)c1nc(Cn2nc(-c3ccc(Cl)cc3)n(C[C@H](OP(=O)(O)O)C(F)(F)F)c2=O)nn1-c1ncccc1Cl [Example 17, (2S)-3-[1-{[5-Carbamoyl-1-(3-chloropyridin-2-yl)-1H-1,2,4-triazol-3-yl]methyl}-3-(4-chloro-phenyl)-5-oxo-1,5-dihydro-4H-1,2,4-triazol-4-yl]-1,1,1-trifluoropropan-2-yl Dihydrogen Phosphate] | 1.03 | 9.45 | – | – | – | – | 100 | 100 | 100 | 100 | – | – |
